In PMC12090182, “Repurposing of the RIPK1-Selective Benzo[1,4]oxazepin-4-one Scaffold for the Development of a Type III LIMK1/2 Inhibitor” (ACS Chemical Biology, 2025):

Columns and labels:
Type in all cases: cell-based
[1] = biological target: MET (Homo sapiens, UniProt P08581); settings: HEK-293T; 1 μM inhibitor, HEK293T cells
Procedure: (§1) For plate preparation, a transfection mix was prepared in white 384-well small-volume plates (Greiner, cat. no. 784075) by preplating 3 μL of 20 μL/mL FuGene HD (Promega, cat. no. E2311), diluted in an Opti-MEM medium (Gibco, cat. no. 11058-021). One μL of DNA from both DNA vector source plates of the K192 kit was added using an Echo 550 acoustic dispenser (Beckman Coulter). The mix was incubated for 30 min, and 6 μL of HEK293T cells in an Opti-MEM medium was added. The proteins were allowed to express for 20 h. After expression, Tracer K10 was added using the concentrations recommended in the K192 technical manual and a 1 μM inhibitor was added to every second well. […] Five μL of substrate solution was added to every well, and filtered luminescence was measured on a PHERAstar plate reader (BMG Labtech) equipped with a luminescence filter pair (450 nm BP filter (donor) and a 610 nm LP filter (acceptor)). For every kinase, occupancy was calculated and plotted using GraphPad Prism 10 (Table S5).

[2] = biological target: WEE2 (Homo sapiens, UniProt P0C1S8); settings: HEK-293T; 1 μM inhibitor, HEK293T cells
Procedure: as §1

[3] = biological target: RPS6KA2 (Homo sapiens, UniProt Q15349); settings: HEK-293T; 1 μM inhibitor, HEK293T cells
Procedure: as §1

[4] = biological target: NEK5 (Homo sapiens, UniProt Q6P3R8); settings: HEK-293T; 1 μM inhibitor, HEK293T cells
Procedure: as §1

[5] = biological target: RON (Homo sapiens, UniProt Q04912); settings: HEK-293T; 1 μM inhibitor, HEK293T cells
Procedure: as §1

[6] = biological target: MAP3K3 (Homo sapiens, UniProt Q99759); settings: HEK-293T; 1 μM inhibitor, HEK293T cells
Procedure: as §1

[7] = biological target: SIK3 FL (Homo sapiens, UniProt Q9Y2K2); settings: HEK-293T; 1 μM inhibitor, HEK293T cells
Procedure: as §1

[8] = biological target: BMX (Homo sapiens, UniProt P51813); settings: HEK-293T; 1 μM inhibitor, HEK293T cells
Procedure: as §1

[9] = biological target: EPHA7 (Homo sapiens, UniProt Q15375); settings: HEK-293T; 1 μM inhibitor, HEK293T cells
Procedure: as §1

[10] = biological target: RPS6KA4 (Homo sapiens, UniProt O75676); settings: HEK-293T; 1 μM inhibitor, HEK293T cells
Procedure: as §1

[11] = biological target: MAP4K1 (Homo sapiens, UniProt Q92918); settings: HEK-293T; 1 μM inhibitor, HEK293T cells
Procedure: as §1

[12] = biological target: HIPK2 (Homo sapiens, UniProt Q9H2X6); settings: HEK-293T; 1 μM inhibitor, HEK293T cells
Procedure: as §1

[13] = biological target: CAMK2D (Homo sapiens, UniProt Q13557); settings: HEK-293T; 1 μM inhibitor, HEK293T cells
Chain of CAMK2D (Q13557 whole entry): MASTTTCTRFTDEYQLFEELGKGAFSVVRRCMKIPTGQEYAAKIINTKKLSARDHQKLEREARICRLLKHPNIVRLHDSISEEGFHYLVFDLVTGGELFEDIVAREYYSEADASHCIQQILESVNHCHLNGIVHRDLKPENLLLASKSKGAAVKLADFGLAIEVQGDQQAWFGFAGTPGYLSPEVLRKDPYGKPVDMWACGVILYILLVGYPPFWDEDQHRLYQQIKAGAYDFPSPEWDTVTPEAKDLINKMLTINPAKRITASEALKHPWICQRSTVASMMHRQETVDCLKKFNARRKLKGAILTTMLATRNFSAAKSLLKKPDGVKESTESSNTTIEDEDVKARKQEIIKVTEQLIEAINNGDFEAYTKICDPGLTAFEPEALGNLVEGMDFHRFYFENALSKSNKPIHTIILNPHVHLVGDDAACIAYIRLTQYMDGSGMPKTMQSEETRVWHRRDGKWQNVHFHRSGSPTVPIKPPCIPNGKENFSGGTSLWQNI
Procedure: as §1

[14] = biological target: DYRK1A (Homo sapiens, UniProt Q13627); settings: HEK-293T; 1 μM inhibitor, HEK293T cells
Procedure: as §1

[15] = biological target: MAP3K12 (Homo sapiens, UniProt Q12852); settings: HEK-293T; 1 μM inhibitor, HEK293T cells
Chain of MAP3K12 (Q12852 whole entry): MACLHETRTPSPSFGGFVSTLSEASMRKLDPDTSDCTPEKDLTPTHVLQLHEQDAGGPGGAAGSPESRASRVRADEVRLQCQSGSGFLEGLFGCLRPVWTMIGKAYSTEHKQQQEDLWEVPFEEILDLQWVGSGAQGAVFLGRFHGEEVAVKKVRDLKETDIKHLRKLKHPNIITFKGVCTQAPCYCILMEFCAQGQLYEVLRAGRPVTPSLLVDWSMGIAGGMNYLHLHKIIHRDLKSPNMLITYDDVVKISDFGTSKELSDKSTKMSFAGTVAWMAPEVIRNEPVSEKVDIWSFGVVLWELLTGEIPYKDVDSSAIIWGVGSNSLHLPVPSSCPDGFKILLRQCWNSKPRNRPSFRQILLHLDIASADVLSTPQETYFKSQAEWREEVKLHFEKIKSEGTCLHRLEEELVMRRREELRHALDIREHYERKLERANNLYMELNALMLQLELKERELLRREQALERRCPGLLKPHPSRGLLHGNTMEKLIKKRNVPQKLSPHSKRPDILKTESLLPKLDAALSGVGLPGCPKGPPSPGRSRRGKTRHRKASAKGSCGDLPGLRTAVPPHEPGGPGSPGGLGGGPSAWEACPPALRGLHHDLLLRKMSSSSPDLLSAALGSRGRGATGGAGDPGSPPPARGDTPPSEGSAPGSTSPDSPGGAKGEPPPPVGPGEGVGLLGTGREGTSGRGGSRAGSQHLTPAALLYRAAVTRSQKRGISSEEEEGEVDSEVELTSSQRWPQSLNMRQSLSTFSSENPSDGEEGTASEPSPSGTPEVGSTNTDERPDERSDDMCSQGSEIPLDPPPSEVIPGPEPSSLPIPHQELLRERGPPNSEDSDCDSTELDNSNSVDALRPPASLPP
Procedure: as §1

[16] = biological target: IKBKE (Homo sapiens, UniProt Q14164); settings: HEK-293T; 1 μM inhibitor, HEK293T cells
Chain of IKBKE (Q14164 whole entry): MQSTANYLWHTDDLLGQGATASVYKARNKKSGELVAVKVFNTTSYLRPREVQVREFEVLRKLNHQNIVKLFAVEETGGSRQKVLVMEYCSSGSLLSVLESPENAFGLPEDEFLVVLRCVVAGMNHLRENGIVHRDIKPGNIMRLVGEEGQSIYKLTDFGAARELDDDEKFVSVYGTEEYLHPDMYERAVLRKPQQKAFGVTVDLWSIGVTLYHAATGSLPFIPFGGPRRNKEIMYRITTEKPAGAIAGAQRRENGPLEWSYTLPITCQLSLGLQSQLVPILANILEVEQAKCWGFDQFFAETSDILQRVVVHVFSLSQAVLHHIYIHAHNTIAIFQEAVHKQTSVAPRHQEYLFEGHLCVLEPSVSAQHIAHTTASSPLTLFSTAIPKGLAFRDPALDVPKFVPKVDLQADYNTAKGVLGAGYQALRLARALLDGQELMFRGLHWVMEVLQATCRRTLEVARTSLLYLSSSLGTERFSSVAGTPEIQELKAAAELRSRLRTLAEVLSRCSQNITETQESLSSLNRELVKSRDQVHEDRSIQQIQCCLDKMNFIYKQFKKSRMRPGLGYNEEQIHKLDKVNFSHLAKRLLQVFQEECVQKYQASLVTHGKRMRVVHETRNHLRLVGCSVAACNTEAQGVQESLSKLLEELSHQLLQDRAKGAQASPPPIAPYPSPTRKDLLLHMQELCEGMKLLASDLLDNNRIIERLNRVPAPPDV
Procedure: as §1

[17] = biological target: AURKB (Homo sapiens, UniProt Q96GD4); settings: HEK-293T; 1 μM inhibitor, HEK293T cells
Procedure: as §1

[18] = biological target: LTK (Homo sapiens, UniProt P29376); settings: 1 μM inhibitor, HEK293T cells
Procedure: as §1

[19] = biological target: CDKL3 (Homo sapiens, UniProt Q8IVW4); settings: HEK-293T; 1 μM inhibitor, HEK293T cells
Chain of CDKL3 (Q8IVW4 whole entry): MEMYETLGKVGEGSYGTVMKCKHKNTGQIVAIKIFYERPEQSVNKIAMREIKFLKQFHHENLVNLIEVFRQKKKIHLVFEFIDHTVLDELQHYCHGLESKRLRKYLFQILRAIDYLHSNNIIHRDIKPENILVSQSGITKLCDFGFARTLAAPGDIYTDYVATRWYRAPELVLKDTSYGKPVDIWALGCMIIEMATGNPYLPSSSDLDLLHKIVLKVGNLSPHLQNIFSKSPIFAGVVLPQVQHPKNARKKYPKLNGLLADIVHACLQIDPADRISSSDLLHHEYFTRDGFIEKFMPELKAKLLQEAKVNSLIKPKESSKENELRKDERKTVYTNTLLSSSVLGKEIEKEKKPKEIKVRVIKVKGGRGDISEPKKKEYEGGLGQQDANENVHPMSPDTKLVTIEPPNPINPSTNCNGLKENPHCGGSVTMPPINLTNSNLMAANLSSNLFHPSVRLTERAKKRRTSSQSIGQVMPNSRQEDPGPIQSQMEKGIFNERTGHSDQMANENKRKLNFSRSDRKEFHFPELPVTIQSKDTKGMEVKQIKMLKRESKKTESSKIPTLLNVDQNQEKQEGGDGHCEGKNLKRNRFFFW
Procedure: as §1

[20] = biological target: NTRK2 (Homo sapiens, UniProt Q16620); settings: HEK-293T; 1 μM inhibitor, HEK293T cells
Procedure: as §1

[21] = biological target: EPHA6 (Homo sapiens, UniProt Q9UF33); settings: HEK-293T; 1 μM inhibitor, HEK293T cells
Procedure: as §1

[22] = biological target: NEK9 (Homo sapiens, UniProt Q8TD19); settings: HEK-293T; 1 μM inhibitor, HEK293T cells
Procedure: as §1

[23] = biological target: NLK (Homo sapiens, UniProt Q9UBE8); settings: HEK-293T; 1 μM inhibitor, HEK293T cells
Procedure: as §1

[24] = biological target: CHEK2 (Homo sapiens, UniProt O96017); settings: HEK-293T; 1 μM inhibitor, HEK293T cells
Procedure: as §1

[25] = biological target: DYRK1B (Homo sapiens, UniProt Q9Y463); settings: HEK-293T; 1 μM inhibitor, HEK293T cells
Chain of DYRK1B (Q9Y463 whole entry): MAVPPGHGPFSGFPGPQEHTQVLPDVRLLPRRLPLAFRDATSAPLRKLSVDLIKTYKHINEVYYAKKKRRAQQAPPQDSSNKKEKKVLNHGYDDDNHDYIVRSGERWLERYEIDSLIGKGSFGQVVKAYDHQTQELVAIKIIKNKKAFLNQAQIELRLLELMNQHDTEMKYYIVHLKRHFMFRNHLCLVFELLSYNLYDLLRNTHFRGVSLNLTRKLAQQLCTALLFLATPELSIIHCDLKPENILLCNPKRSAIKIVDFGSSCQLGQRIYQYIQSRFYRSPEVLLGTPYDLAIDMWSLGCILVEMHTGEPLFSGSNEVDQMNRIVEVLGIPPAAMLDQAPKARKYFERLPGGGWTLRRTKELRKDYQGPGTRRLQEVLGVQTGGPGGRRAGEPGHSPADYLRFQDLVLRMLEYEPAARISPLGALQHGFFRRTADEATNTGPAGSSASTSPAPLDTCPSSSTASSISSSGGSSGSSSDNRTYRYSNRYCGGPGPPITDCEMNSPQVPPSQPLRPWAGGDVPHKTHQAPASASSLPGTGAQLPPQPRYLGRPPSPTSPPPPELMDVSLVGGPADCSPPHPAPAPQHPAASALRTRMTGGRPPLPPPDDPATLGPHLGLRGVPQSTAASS
Procedure: as §1

[26] = biological target: FYN (Homo sapiens, UniProt P06241); settings: HEK-293T; 1 μM inhibitor, HEK293T cells
Procedure: as §1

[27] = biological target: MAP3K2 (Homo sapiens, UniProt Q9Y2U5); settings: HEK-293T; 1 μM inhibitor, HEK293T cells
Procedure: as §1

[28] = biological target: BMP2K (Homo sapiens, UniProt Q9NSY1); settings: HEK-293T; 1 μM inhibitor, HEK293T cells
Procedure: as §1

[29] = biological target: DCLK3 (Homo sapiens, UniProt Q9C098); settings: HEK-293T; 1 μM inhibitor, HEK293T cells
Chain of DCLK3 (Q9C098 whole entry): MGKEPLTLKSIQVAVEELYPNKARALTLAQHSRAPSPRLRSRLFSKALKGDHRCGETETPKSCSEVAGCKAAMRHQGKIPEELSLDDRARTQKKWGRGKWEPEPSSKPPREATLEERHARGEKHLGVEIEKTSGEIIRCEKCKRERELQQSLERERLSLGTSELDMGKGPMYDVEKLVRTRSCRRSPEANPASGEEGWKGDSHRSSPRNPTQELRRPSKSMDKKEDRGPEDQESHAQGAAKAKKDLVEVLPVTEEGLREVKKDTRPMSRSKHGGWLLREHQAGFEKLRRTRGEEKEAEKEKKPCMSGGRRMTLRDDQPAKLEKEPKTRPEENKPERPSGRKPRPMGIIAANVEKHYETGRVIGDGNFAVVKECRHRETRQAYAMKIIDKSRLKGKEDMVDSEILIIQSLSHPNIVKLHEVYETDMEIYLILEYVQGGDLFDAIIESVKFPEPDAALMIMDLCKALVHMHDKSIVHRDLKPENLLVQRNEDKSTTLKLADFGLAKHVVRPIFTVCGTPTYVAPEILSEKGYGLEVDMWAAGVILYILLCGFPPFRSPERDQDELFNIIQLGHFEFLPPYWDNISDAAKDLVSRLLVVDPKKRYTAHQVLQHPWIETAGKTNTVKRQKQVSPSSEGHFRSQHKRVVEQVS
Procedure: as §1

[30] = biological target: CDK3 (Homo sapiens, UniProt Q00526); settings: HEK-293T; 1 μM inhibitor, HEK293T cells
Procedure: as §1

[31] = biological target: PRKACA (Homo sapiens, UniProt P17612); settings: HEK-293T; 1 μM inhibitor, HEK293T cells
Procedure: as §1

[32] = biological target: DAPK2 (Homo sapiens, UniProt Q9UIK4); settings: HEK-293T; 1 μM inhibitor, HEK293T cells
Procedure: as §1

[33] = biological target: TYRO3 (Homo sapiens, UniProt Q06418); settings: HEK-293T; 1 μM inhibitor, HEK293T cells
Chain of TYRO3 (Q06418 41-890): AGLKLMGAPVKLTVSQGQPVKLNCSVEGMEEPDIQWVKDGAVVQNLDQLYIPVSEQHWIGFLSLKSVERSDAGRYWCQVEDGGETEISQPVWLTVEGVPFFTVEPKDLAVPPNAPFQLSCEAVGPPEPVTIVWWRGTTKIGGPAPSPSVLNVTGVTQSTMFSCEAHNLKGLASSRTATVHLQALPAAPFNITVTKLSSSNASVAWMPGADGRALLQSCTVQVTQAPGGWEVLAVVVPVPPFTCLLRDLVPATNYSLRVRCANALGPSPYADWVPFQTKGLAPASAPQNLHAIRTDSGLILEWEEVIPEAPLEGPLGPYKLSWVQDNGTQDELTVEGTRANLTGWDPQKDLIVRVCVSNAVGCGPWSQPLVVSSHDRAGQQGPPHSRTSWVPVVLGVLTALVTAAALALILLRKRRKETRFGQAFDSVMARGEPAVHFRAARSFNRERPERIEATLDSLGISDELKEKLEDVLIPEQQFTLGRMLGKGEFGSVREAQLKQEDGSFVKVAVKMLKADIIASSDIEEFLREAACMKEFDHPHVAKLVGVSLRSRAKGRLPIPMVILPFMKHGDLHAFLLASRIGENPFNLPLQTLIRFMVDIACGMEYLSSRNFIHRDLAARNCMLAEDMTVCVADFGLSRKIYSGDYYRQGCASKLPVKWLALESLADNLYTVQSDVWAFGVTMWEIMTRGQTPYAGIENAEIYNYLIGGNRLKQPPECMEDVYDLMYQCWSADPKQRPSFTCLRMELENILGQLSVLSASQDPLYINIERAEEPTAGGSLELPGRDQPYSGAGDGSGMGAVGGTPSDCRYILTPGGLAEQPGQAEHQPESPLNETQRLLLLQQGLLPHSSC
Procedure: as §1

[34] = biological target: SNRK (Homo sapiens, UniProt Q9NRH2); settings: HEK-293T; 1 μM inhibitor, HEK293T cells
Procedure: as §1

[35] = biological target: CSNK2A1 (Homo sapiens, UniProt P68400); settings: HEK-293T; 1 μM inhibitor, HEK293T cells
Procedure: as §1

[36] = biological target: PHKG2 (Homo sapiens, UniProt P15735); settings: HEK-293T; 1 μM inhibitor, HEK293T cells
Procedure: as §1

[37] = biological target: RET (Homo sapiens, UniProt P07949); settings: HEK-293T; 1 μM inhibitor, HEK293T cells
Procedure: as §1

## CN1C(=O)[C@@H](N2CCc3c(nn(Cc4ccccc4)c3C(N)=O)C2=O)COc2cc(Cl)ccc21 [Compound 10, (S)-2-benzyl-6-(8-chloro-5-methyl-4-oxo-2,3,4,5-tetrahydrobenzo[b][1,4]oxazepin-3-yl)-7-oxo-4,5,6,7-tetrahydro-2H-pyrazolo[3,4-c]pyridine-3-carboxamide]
[1]
  receptor occupancy at 1 µM: 4.93%
[2]
  receptor occupancy at 1 µM: -0.12%
[3]
  receptor occupancy at 1 µM: -4.28%
[4]
  receptor occupancy at 1 µM: -1.37%
[5]
  receptor occupancy at 1 µM: 0.288%
[6]
  receptor occupancy at 1 µM: 5.83%
[7]
  receptor occupancy at 1 µM: -5.87%
[8]
  receptor occupancy at 1 µM: -3.33%
[9]
  receptor occupancy at 1 µM: -2.24%
[10]
  receptor occupancy at 1 µM: 7.5%
[11]
  receptor occupancy at 1 µM: 3.49%
[12]
  receptor occupancy at 1 µM: 16%
[13]
  receptor occupancy at 1 µM: 5.75%
[14]
  receptor occupancy at 1 µM: -1.01%
[15]
  receptor occupancy at 1 µM: -2.26%
[16]
  receptor occupancy at 1 µM: 6.88%
[17]
  receptor occupancy at 1 µM: -2.1%
[18]
  receptor occupancy at 1 µM: -4.01%
[19]
  receptor occupancy at 1 µM: 4.18%
[20]
  receptor occupancy at 1 µM: 1.19%
[21]
  receptor occupancy at 1 µM: -0.834%
[22]
  receptor occupancy at 1 µM: 3.71%
[23]
  receptor occupancy at 1 µM: 5.94%
[24]
  receptor occupancy at 1 µM: -1.73%
[25]
  receptor occupancy at 1 µM: -4.33%
[26]
  receptor occupancy at 1 µM: 5.88%
[27]
  receptor occupancy at 1 µM: -2.55%
[28]
  receptor occupancy at 1 µM: -6.67%
[29]
  receptor occupancy at 1 µM: 2.41%
[30]
  receptor occupancy at 1 µM: -5.32%
[31]
  receptor occupancy at 1 µM: -2.16%
[32]
  receptor occupancy at 1 µM: -5.62%
[33]
  receptor occupancy at 1 µM: -9.33%
[34]
  receptor occupancy at 1 µM: 7.74%
[35]
  receptor occupancy at 1 µM: 3.96%
[36]
  receptor occupancy at 1 µM: -1.01%
[37]
  receptor occupancy at 1 µM: -7.79%
